{"source": "patent US9682994B2", "about": "“Inhibitors of retroviral replication” (The Scripps Research Institute, priority 2011, dated 2017)", "key": {"HIV-1 pNL4-3 [1]": {"test_system": "HIV-1 pNL4-3", "test": "Chronically HIV-1 infected HeLa-CD4 cells, viral RNA by qRT-PCR / p24", "assay_type": "cell-based", "details": "Human immunodeficiency virus 1; read-out: EC50 for abrogating chronic HIV infection", "procedure": "FIG. 1G: p24 antigen quantification. Viral supernatants recovered from cells described in FIG. 1B, grown for 60 days, were assayed for their p24 antigen content using a sandwich ELISA kit. Error bars represent standard deviations.\nFirst-strand cDNA from RNA for qPCR was prepared using […]™ first-strand cDNA kit (Invitrogen), following the manufacturer's instructions, using approximately 5 μg of RNA as starting material and random hexamers as first-strand primers. Quantitative PCR was performed with an aliquot of cDNA as template, using […]® 480 SYBR Green I Master (Roche) in a 20 μL reaction according to the manufacturer's instructions. […] The primers used were as follows: […]\nSuch an early time point rules out de novo infections. […] This conclusion was further supported by the fact that treatment of cells that were chronically infected, and therefore continuously shedding the virus (without incurring new infections, due to down-regulation of CD4 from the cell surface), reduced virus production to undetectable levels (FIG. 1F). […] Results were similar when viral release from cells treated for 60 days were measured by p24 enzyme-linked immunosorbent assay (ELISA) (FIG. 1G)."}, "HIV-1 pNL43": {"test_system": "HIV-1 pNL43", "test": "HIV-1 replication in PHA/IL-2 stimulated human PBMCs, p24 ELISA", "assay_type": "cell-based", "details": "p24 ELISA, 5 days post infection", "procedure": "Freshly isolated uninfected human PBMCs were stimulated with PHA for two days, washed, and grown from then on in IL-2 alone. […] Antigen p24 was measured 5 days post infection using a sandwich ELISA kit.\nTo isolate PBMCs, 24 ml of total blood diluted two fold in RPMI or PBS were carefully layered over 12 ml of Ficoll-paque and centrifuged at 2000 rpm for 20 min (brakes off). Resultant layers are approximately from top to bottom: plasma-platelets-PBMC-Ficoll-red blood cells (with granulocytes). Most of the plasma was pipetted off and discarded. The buffy coat with PBMC's was carefully removed from 3 large (50 ml) tubes and transferred to a new 50 ml tube. The remaining Ficoll and red blood cells were discarded in closed tubes. Enough PBS was added to the PBMCs to make up 50 ml and centrifuged at 1200 rpm for 10 min, brakes on. The supernatant was decanted and the pellet was loosened and washed twice with PBS. Washed pellet was recovered in 30 ml of RPMI 1640 supplemented with 10% serum, 1% Penicillin-streptomycin and mixed well. PBMCs were counted and plated at 1×10^6 cells/ml. To activate the PBMCs, PHA (phytohaemagglutinin) was added at 3 μg/ml. Two to three days later add Interleukin 2 (IL2) at 3×10^−3 μg/ml.\nPHA activated PBMCs were centrifuged and recovered at 6×10^6 cells in 3 ml complete RPMI. Then 3 ml of viral supernatant was added and incubated for 4 h at 37° C. After this period, cells were centrifuged, washed 3 times with PBS and recovered in 3 ml complete RPMI. PBMCs were plated at 0.5 ml per well in a 6-well plate, and 0.5 ml media with DMSO control or anti-viral control at 2× final concentration was added. IL-2 was added at 3×10^−3 μg/ml. Supernatant was recovered for p24 assay every 3-4 days post infection. Cells were split at 1×10^6 cell per ml every 5-7 days.\nHIV-1 transcription is intimately linked to T-cell activation due to shared motifs between the HIV-LTR and the regulatory regions in induced genes, namely NF-κB. A large variety of T cell stimuli activate NF-κB, including PHA, IL-2 and tumor necrosis factor alpha (TNF-α)."}, "Tat": {"test_system": "Tat", "test": "Biotinylated compound streptavidin-bead pull-down of Tat", "assay_type": "binding, HIV-1", "details": "for competition for binding of recombinant Tat to Bio-dCA: excess competitor", "procedure": "(§1) HEK293T cells were transfected with flag-tagged Tat 101 a.a. (Tat-F-101-wt), a shorter Tat version with 86 a.a. (Tat-F-86-wt), Tat 86 a.a. mutated in the basic domain (Tat-F-BRM), flag-tagged CDK11 (CDK11-F), flag-tagged 9G8 (9G8-F) and empty vector control.\nRecombinant Tat protein was incubated with Bio-dCA streptavidin-coated beads in the presence or absence of an excess of non-biotinylated dCA (represented as molar equivalent [eq.] of Bio-dCA). Raltegravir and recombinant GST-9G8 were used as a negative control competitor or as negative protein-binding control, respectively.\n(§2) DYNABEADS® MYONE™ Streptavidin T1 (12.5 μl slurry) (Invitrogen) were pre-saturated with 1.88 μl of 1 mM in DMSO of Biotin alone or Bio-dCA and incubated for 1 h at room temperature with orbital rocking, plus an additional 30 min with Biotin (0.63 μl of 1 mM in DMSO). Protein extracts (250 μg per sample) were incubated with the pre-saturated beads in lysis buffer supplemented with 0.1% BSA for 1 h at 4° C. with orbital rocking. After incubation, the beads were washed three times with lysis buffer.\nFor the pull-down of recombinant Tat (#2222 of NIH) and GST-9G8, streptavidin-agarose beads (40 μl slurry) were pre-saturated with 1.5 μl of 1 mM in DMSO, Biotin alone, or Bio-dCA and incubated for 1 h at room temperature. […] After incubation, the beads were washed three times with PBS and proteins were eluted as before."}, "ROCK II": {"molecular_target": "ROCK II (Homo sapiens, UniProt O75116)", "details": "cited from earlier work"}, "Sp1": {"molecular_target": "Sp1 (Homo sapiens, UniProt P08047)", "test": "Bio-CA pull-down, Sp1", "quoted_text": "HEK293T cells were transfected with wt-Tat101-flag, vvtTat86-flag, Tat86mutant-TAR domain, CDK11-flag or 9G8-flag as negative control. Forty hours later, protein extracts were incubated with DYNABEADS® MYONE™ Streptavidin T1 coated with either biotin or Biotinylated-CA. Pulled down proteins analyzed by Western blot with the indicated antibodies."}, "[2]": {"test_system": "basic region Tat mutant (Tat-1 BRM)", "test": "Biotinylated compound pull-down of basic region Tat mutant", "assay_type": "binding, HIV-1", "procedure": "as §1, §2"}, "CDK11 [3]": {"molecular_target": "CDK11 (Homo sapiens, UniProt P21127)", "sequence (P21127 whole entry)": "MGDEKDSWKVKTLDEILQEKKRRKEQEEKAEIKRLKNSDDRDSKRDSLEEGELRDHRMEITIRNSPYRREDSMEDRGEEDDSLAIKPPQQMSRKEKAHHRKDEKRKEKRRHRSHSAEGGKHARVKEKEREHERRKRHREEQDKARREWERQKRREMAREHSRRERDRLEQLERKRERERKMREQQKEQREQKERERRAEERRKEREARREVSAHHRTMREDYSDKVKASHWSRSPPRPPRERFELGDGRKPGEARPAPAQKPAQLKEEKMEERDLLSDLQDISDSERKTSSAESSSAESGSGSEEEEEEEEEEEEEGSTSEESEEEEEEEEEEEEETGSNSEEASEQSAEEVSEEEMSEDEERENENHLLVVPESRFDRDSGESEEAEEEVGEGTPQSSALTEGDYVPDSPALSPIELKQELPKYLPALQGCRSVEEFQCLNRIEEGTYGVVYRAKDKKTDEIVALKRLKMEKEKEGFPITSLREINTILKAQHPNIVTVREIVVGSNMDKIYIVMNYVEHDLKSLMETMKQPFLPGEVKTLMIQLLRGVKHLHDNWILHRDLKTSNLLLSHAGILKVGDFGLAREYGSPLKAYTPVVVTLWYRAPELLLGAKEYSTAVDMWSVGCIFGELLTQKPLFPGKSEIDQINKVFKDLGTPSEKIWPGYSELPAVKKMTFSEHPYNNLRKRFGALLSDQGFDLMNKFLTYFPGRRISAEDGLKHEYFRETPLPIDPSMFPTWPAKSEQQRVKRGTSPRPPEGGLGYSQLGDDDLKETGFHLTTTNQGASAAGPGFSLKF", "test": "Biotinylated compound pull-down of CDK11", "assay_type": "binding", "set-up": "expressed in transfected cells; host or cells: HEK293T", "procedure": "as §1, §2"}, "HIV-1 pNL4-3 [4]": {"test_system": "HIV-1 pNL4-3", "test": "Acute HIV-1 infection, HeLa-CD4-LTR-LacZ reporter CPRG assay", "assay_type": "cell-based", "procedure": "Forty-eight hours post infection a quantitative chlorophenol red-β-D-galactopyranoside (CPRG) assay was performed.\nTwenty-four hours later HIV-1 pNL4-3 was added to the cells of both experiment sets (MOI>>10) in the presence of testing compound or DMSO control. CPRG assay performed 48 h later.\nHeLa-CD4 cells were infected with HIV-1 pNL4-3 in the presence of the indicated compounds or DMSO. Forty hours post infection a CPRG assay was performed. […] Error bars represent standard deviation.\nP42 cells were plated at 1×10^4 cells per well of 96 well. Twenty-four hours later HIV-1 pNL4-3 was added to the wells in the presence of testing compound or DMSO control in a total volume of […] Forty hours post infection cells were disrupted in lysis buffer (60 mM Na2HPO4, 40 mM NaH2PO4, 10 mM KCl, 10 mM MgSO4, 2.5 mM EDTA, 50 mM β-mercaptoethanol, 0.125% Nonidet P-40) and a quantitative chlorophenol red-β-D-galactopyranoside (CPRG)-based (Boehringer Mannheim) assay was performed. The cell extracts were incubated in a reaction buffer (0.9 M phosphate buffer [pH 7.4], 9 mM MgCl2, 11 mM β-mercaptoethanol, 7 mM CPRG) until a red color developed (from approximately 10 min to 4 h) and measured with an LP400 (Becton Dickinson) plate reader at 572 nm. Experiments were performed in triplicate.\nTranscription of the HIV-1 provirus is regulated by both viral and cellular transcription factors. Before Tat is produced, low-level basal transcription from the viral promoter is initiated by cellular factors, such as the nuclear factor-kappa B (NF-kB), Sp1, TATA-binding protein and RNAPII. A desirable Tat inhibitor should block Tat-mediated activation of the viral promoter without affecting its basal transcription, which would result in cellular toxicity, given the shared transcription factors of the HIV promoter and cellular genes."}, "CDK8": {"molecular_target": "CDK8 (Homo sapiens, UniProt P49336)", "details": "cited from earlier work"}, "CMV and MLV promoters": {"test_system": "CMV and MLV promoters", "test": "Transcription from CMV and MLV promoters", "assay_type": "cell-based", "excerpt": "DNA-PK was identified as a binding partner of CA by mass spectrometry and further confirmation of this interaction was provided by performing a pull down assay (FIG. 15). Without wishing to be bound by theory, it was hypothesized that part of the mechanism by which CA inhibits HIV replication is by blocking the accrued DNA-PK phosphorylation of Sp1 mediated by Tat with a consequent reduction in both basal and Tat-mediated transcriptional activation of the HIV LTR promoter. Sp1 is thought to be essential for basal transcription and Tat-mediated activation of HIV-1."}, "CDK11 [5]": {"molecular_target": "CDK11 (Homo sapiens, UniProt Q9BWU1)", "details": "cited from earlier work"}, "[6]": {"test_system": "human umbilical vein endothelial cells (HUVECs)", "details": "read-out: average half maximal inhibitory concentration (IC50), anti-proliferative; cited from earlier work"}, "RNA polymerase": {"test_system": "RNA polymerase", "test": "Bio-CA pull-down, RNA polymerase"}, "[7]": {"molecular_target": "T1, DNA-dependent protein kinase (DNA-PK) catalytic subunit (Homo sapiens, UniProt P78527)", "T1 construct": "endogenous in cells; host or cells: P42 (HeLa-CD4-LTR-LacZ) cells; HEK293T cells", "T1 sequence (P78527 whole entry)": "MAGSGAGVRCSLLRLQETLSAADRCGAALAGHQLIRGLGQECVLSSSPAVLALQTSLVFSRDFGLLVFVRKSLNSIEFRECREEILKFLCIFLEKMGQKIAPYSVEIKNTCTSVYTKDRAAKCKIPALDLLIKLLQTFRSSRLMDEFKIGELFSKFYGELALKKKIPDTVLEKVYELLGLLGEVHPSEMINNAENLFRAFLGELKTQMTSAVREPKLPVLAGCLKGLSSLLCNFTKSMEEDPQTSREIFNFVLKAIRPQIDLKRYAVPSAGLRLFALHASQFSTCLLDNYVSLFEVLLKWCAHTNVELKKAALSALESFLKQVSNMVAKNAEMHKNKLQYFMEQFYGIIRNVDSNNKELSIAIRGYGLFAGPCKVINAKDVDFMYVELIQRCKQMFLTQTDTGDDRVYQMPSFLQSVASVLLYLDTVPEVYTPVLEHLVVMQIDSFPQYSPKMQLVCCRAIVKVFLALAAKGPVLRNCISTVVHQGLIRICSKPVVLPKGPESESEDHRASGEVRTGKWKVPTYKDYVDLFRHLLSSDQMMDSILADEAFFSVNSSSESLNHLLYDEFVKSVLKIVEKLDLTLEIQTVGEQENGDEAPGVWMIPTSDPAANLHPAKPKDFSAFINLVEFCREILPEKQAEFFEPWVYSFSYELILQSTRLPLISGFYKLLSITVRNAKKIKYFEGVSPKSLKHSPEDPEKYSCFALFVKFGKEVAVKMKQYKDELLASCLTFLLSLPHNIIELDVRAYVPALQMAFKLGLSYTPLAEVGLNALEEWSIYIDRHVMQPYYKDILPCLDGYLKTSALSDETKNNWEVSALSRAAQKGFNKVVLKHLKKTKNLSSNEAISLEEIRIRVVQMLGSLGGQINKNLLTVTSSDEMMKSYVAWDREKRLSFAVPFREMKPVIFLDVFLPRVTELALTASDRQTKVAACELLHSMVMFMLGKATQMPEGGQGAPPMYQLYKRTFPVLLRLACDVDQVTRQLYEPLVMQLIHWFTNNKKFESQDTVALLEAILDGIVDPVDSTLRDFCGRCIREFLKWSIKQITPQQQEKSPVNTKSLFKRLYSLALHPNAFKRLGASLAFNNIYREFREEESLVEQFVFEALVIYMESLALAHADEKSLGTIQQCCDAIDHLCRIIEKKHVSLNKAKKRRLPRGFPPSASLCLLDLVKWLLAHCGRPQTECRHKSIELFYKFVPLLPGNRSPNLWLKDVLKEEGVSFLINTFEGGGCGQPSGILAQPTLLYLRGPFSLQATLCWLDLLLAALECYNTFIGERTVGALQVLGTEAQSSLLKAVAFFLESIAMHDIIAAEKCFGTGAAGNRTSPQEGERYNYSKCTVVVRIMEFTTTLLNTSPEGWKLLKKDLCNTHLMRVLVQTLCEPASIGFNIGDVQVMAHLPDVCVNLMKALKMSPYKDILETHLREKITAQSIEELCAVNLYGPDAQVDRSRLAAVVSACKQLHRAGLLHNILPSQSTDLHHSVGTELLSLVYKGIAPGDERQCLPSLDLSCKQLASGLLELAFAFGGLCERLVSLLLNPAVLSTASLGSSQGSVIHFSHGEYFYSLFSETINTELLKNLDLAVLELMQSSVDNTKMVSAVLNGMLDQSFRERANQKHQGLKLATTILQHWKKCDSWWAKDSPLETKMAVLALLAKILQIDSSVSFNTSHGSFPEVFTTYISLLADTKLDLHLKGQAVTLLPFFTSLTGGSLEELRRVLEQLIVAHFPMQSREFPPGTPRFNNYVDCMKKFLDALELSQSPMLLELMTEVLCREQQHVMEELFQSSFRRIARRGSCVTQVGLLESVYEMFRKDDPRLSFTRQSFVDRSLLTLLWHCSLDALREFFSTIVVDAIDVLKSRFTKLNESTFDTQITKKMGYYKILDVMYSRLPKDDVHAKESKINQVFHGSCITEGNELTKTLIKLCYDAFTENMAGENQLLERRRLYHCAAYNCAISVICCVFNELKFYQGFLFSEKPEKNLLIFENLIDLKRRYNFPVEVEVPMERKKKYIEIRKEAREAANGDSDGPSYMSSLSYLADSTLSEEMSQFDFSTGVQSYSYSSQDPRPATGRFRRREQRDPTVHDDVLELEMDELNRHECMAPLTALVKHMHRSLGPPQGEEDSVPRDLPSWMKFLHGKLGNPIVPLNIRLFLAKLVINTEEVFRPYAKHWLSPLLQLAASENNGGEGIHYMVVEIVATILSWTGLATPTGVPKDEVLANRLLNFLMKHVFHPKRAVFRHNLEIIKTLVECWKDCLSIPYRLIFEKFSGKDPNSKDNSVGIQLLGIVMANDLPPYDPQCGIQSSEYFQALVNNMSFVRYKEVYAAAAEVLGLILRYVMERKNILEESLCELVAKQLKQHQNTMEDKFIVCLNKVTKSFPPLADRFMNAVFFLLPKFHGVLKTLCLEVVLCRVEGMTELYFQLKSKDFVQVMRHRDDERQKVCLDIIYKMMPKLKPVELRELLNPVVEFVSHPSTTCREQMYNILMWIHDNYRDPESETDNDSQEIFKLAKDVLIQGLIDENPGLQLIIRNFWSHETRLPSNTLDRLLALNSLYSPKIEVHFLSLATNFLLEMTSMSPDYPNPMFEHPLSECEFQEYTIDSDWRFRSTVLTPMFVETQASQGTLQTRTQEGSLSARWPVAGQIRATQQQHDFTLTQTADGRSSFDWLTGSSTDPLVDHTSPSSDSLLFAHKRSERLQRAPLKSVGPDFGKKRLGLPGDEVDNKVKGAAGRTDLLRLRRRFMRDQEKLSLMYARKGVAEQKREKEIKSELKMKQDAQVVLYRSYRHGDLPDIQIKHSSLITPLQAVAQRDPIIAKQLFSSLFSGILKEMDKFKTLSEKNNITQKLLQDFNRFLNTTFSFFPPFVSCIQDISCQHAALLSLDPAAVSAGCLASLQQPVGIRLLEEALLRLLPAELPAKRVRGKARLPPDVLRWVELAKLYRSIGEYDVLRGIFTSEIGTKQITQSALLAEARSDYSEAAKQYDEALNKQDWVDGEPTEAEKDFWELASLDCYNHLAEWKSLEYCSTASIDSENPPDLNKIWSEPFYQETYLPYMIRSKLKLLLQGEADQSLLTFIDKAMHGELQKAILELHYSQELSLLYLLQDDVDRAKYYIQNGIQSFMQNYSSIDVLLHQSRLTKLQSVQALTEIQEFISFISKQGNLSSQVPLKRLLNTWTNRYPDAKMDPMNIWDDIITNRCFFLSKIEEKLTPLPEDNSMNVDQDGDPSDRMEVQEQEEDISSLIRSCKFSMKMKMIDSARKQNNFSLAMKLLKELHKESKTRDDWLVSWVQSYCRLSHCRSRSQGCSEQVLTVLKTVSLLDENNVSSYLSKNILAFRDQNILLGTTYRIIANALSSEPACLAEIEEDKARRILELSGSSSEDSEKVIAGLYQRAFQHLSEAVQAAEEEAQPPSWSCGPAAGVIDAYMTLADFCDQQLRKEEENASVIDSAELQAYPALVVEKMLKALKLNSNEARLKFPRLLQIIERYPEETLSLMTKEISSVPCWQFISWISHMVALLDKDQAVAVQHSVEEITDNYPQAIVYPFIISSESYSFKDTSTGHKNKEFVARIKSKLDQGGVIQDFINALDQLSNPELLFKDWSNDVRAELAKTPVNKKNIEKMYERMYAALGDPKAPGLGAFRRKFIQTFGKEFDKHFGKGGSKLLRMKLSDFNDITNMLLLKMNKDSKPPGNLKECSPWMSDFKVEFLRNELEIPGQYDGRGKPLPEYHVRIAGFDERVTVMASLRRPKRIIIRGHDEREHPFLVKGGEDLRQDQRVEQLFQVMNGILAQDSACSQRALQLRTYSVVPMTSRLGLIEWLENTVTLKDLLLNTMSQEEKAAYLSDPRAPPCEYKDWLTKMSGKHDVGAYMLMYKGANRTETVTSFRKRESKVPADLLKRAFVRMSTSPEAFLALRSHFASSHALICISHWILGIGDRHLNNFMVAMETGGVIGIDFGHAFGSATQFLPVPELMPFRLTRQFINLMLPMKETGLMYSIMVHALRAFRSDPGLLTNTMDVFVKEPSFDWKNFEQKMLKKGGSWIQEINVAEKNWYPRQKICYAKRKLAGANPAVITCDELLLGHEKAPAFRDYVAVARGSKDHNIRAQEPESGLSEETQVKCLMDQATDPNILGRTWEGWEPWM", "test": "Bio-CA pull-down / mass spectrometry, DNA-PK", "assay_type": "binding", "procedure": "FIG. 14: Bio-CA associated proteins. […] After SDS-PAGE analysis and Coomassie staining, gel slices were trypsin-digested and sent to mass spectrometry analysis.\nTo identify cellular proteins associated with CA, a biotinylated form of the compound (Bio-CA) was used. […] The Bio-CA was used to cover streptavidin-coated magnetic beads to pull down interacting proteins from either uninfected or chronically infected lysates of cells grown in the presence or absence of CA for 48 hours (FIG. 14D). The identity of the proteins pulled down under the different conditions was determined by HPLC MS/MS analysis. The proteins were identified with a greater than 95% confidence using a proprietary Scripps proteomics software package for protein identification, statistical analysis, and mass/peptide sequence correlation. The HIV proteome was added to the proteomics software search database before analysis. Many proteins were identified in uninfected untreated and in chronically untreated samples (approximately 300), however only 53 were displaced by more than 50% by the presence of CA. Of these 53 proteins, it appears that at least 2 may have a role in HIV-1 replication: DNA-dependent protein kinase catalytic subunit (DNA-PK) and helicase like transcription factor (HLTF)."}, "HeLa-CD4 cells": {"test_system": "HeLa-CD4 cells", "test": "MTT mitochondrial metabolic activity (cell viability)", "assay_type": "cell-based"}}}
{"smiles": "Cc1cn([C@H]2C[C@H](N=[N+]=[N-])[C@@H](CO)O2)c(=O)[nH]c1=O", "note": "[AZT, zidovudine, reference compound]", "values": [{"measurement": "EC50", "setting": "HIV-1 pNL4-3 [1]", "value": 5.2, "unit": "nM"}]}
{"smiles": "CC(C)(C)NC(=O)[C@@H]1C[C@@H]2CCCC[C@@H]2CN1C[C@@H](O)[C@H](Cc1ccccc1)NC(=O)[C@H](CC(N)=O)NC(=O)c1ccc2ccccc2n1", "note": "[saquinavir, reference compound]", "values": [{"measurement": "EC50, HIV-1 replication in primary cells (PBMCs)", "setting": "HIV-1 pNL43", "value": "similar"}]}
{"smiles": "Cc1nnc(C(=O)NC(C)(C)c2nc(C(=O)NCc3ccc(F)cc3)c(O)c(=O)n2C)o1", "note": "[Raltegravir, reference compound]", "values": [{"measurement": "EC50, HIV-1 replication in primary cells (PBMCs)", "setting": "HIV-1 pNL43", "value": "similar"}, {"measurement": "competition for binding of recombinant Tat to Bio-dCA", "setting": "Tat", "value": "not"}]}
{"smiles": "CN(C)C1CC23CCC4(O2)C(=CCC2(C)C(c5ccc6ccncc6c5)CCC42)C=C3C(O)C1O", "note": "(stereo not shown) [CA, Cortistatin A]", "values": [{"measurement": "Kd", "setting": "ROCK II", "value": "220 ± 2", "unit": "nM"}, {"measurement": "interaction with Sp1", "setting": "Sp1", "value": "not observed"}, {"measurement": "interaction with TAR-nonbinding basic region Tat mutant (pull-down)", "setting": "[2]", "value": "not"}, {"measurement": "interaction with CDK11 (pull-down)", "setting": "CDK11 [3]", "value": "did not interact"}, {"measurement": "EC50 for the inhibition of HIV activity", "setting": "HIV-1 pNL4-3 [4]", "value": "picomolar to low nanomolar range"}, {"measurement": "Kd", "setting": "CDK8", "value": "17 ± 2", "unit": "nM"}, {"measurement": "transcription activity from CMV and MLV promoters", "setting": "CMV and MLV promoters", "value": "reduces the transcription activity"}, {"measurement": "Kd", "setting": "CDK11 [5]", "value": "10 ± 2", "unit": "nM"}, {"measurement": "competition for binding of recombinant Tat to Bio-dCA", "setting": "Tat", "value": "competed"}, {"measurement": "interaction with Tat (pull-down)", "setting": "Tat; flag-tagged Tat expressed in cells or recombinant Tat", "value": "interacts"}, {"measurement": "IC50", "setting": "[6]", "value": 350, "unit": "nM"}, {"measurement": "pull down of RNA polymerase", "setting": "RNA polymerase", "value": "shown to pull down"}, {"measurement": "interaction with DNA-PK", "setting": "[7]", "value": "seems to interact"}]}
{"smiles": "CN(C)[C@H]1C[C@@]23CC[C@@]4(O2)C(=CC[C@]2(C)C(c5ccc6ccncc6c5)=CC[C@H]24)C=C3[C@@H](OC(=O)CCCCCNC(=O)CCCC[C@@H]2SC[C@@H]3NC(=O)N[C@@H]32)[C@@H]1O.O=C(O)C(F)(F)F.O=C(O)C(F)(F)F", "note": "[Bio-CA]", "values": [{"measurement": "EC50 relative to CA", "setting": "HIV-1 pNL4-3 [4]", "value": 10, "unit": "fold"}, {"measurement": "viability of the cells", "setting": "HeLa-CD4 cells", "value": "did not compromise the viability of the cells"}]}
